Test results taken from the NIST ThermoML archive (doi:10.1007/s10765-005-8096-3).

Experiment: refractive index (Na D-line) (dimensionless); xn = mol fraction of the nth substance listed
Details: 101 kPa, Liquid, Standard Abbe refractometry

CCCCOC(C)=O [butyl ethanoate] + Cc1ccc(C)cc1
refractive index
Details | 293.15 K | 298.15 K | 303.15 K | 308.15 K | 313.15 K
x1 = 0.0494 | 1.49045 | 1.48779 | 1.48504 | 1.48238 | 1.47977
x1 = 0.1014 | 1.48487 | 1.48216 | 1.4794 | 1.47685 | 1.47409
x1 = 0.1494 | 1.4798 | 1.4771 | 1.47436 | 1.47174 | 1.46903
x1 = 0.2012 | 1.47424 | 1.47153 | 1.46878 | 1.46623 | 1.46356
x1 = 0.248 | 1.46931 | 1.46663 | 1.46387 | 1.46134 | 1.45863
x1 = 0.3077 | 1.46309 | 1.46041 | 1.45768 | 1.45514 | 1.45247
x1 = 0.3519 | 1.45847 | 1.45583 | 1.45312 | 1.45058 | 1.44789
x1 = 0.404 | 1.45307 | 1.45044 | 1.44776 | 1.44522 | 1.44259
x1 = 0.4519 | 1.44815 | 1.44554 | 1.44286 | 1.44032 | 1.4377
x1 = 0.4999 | 1.44322 | 1.44061 | 1.43796 | 1.43542 | 1.43282
x1 = 0.5505 | 1.43808 | 1.4355 | 1.43288 | 1.43034 | 1.42775
x1 = 0.5991 | 1.43317 | 1.4306 | 1.42798 | 1.42546 | 1.42286
x1 = 0.6518 | 1.42787 | 1.42531 | 1.42272 | 1.42021 | 1.41762
x1 = 0.6993 | 1.42315 | 1.42063 | 1.41806 | 1.41551 | 1.41295
x1 = 0.749 | 1.41825 | 1.41572 | 1.41319 | 1.41066 | 1.40812
x1 = 0.799 | 1.41333 | 1.41087 | 1.40834 | 1.40581 | 1.40327
x1 = 0.8519 | 1.4083 | 1.40578 | 1.40327 | 1.40076 | 1.39826
x1 = 0.8979 | 1.40384 | 1.40137 | 1.39885 | 1.39641 | 1.3939
x1 = 0.9489 | 1.39894 | 1.39654 | 1.39405 | 1.39155 | 1.3891

CCCCOC(C)=O [butyl ethanoate] + Cc1ccccc1
refractive index
Details | 293.15 K | 298.15 K | 303.15 K | 308.15 K | 313.15 K
x1 = 0.0499 | 1.49044 | 1.48757 | 1.48472 | 1.4818 | 1.47891
x1 = 0.0998 | 1.48428 | 1.48149 | 1.47861 | 1.47573 | 1.47285
x1 = 0.15 | 1.47815 | 1.47538 | 1.47251 | 1.46966 | 1.46684
x1 = 0.2001 | 1.47222 | 1.46948 | 1.46668 | 1.46382 | 1.46101
x1 = 0.2502 | 1.46644 | 1.46358 | 1.46079 | 1.45814 | 1.45535
x1 = 0.2985 | 1.461 | 1.45826 | 1.45547 | 1.45277 | 1.4501
x1 = 0.3447 | 1.4559 | 1.45318 | 1.45041 | 1.44769 | 1.44494
x1 = 0.4011 | 1.4498 | 1.44705 | 1.4443 | 1.44161 | 1.4389
x1 = 0.4468 | 1.44504 | 1.44235 | 1.4397 | 1.43691 | 1.43423
x1 = 0.4994 | 1.43964 | 1.43696 | 1.4343 | 1.43157 | 1.42895
x1 = 0.5524 | 1.4343 | 1.43166 | 1.42902 | 1.42632 | 1.42368
x1 = 0.5999 | 1.42964 | 1.42695 | 1.42432 | 1.42164 | 1.41904
x1 = 0.6517 | 1.42468 | 1.42207 | 1.41943 | 1.41676 | 1.41415
x1 = 0.7 | 1.42017 | 1.41756 | 1.41498 | 1.41233 | 1.40974
x1 = 0.7516 | 1.41545 | 1.41287 | 1.41026 | 1.40773 | 1.40511
x1 = 0.7972 | 1.41141 | 1.40888 | 1.40629 | 1.40371 | 1.4012
x1 = 0.8404 | 1.4076 | 1.40508 | 1.4025 | 1.39992 | 1.39741
x1 = 0.8971 | 1.40273 | 1.40025 | 1.39777 | 1.39518 | 1.39265
x1 = 0.9449 | 1.39881 | 1.3963 | 1.39384 | 1.39133 | 1.38884

CCCCc1ccccc1 [butylbenzene] + CCCCOC(C)=O
refractive index
Details | 293.15 K | 298.15 K | 303.15 K | 308.15 K | 313.15 K
x2 = 0.049 | 1.48578 | 1.48339 | 1.48091 | 1.47847 | 1.47595
x2 = 0.1016 | 1.48141 | 1.47885 | 1.47649 | 1.47387 | 1.47154
x2 = 0.1545 | 1.47686 | 1.47443 | 1.47201 | 1.46946 | 1.46708
x2 = 0.1989 | 1.47295 | 1.47054 | 1.46814 | 1.46556 | 1.46318
x2 = 0.2515 | 1.46838 | 1.46596 | 1.46358 | 1.461 | 1.45858
x2 = 0.3023 | 1.46389 | 1.46143 | 1.45905 | 1.45651 | 1.45403
x2 = 0.3501 | 1.45956 | 1.45713 | 1.4547 | 1.45232 | 1.44977
x2 = 0.3997 | 1.45505 | 1.45258 | 1.45018 | 1.44769 | 1.44526
x2 = 0.45 | 1.45031 | 1.44787 | 1.44547 | 1.44298 | 1.44055
x2 = 0.4993 | 1.44563 | 1.44318 | 1.44078 | 1.43832 | 1.43589
x2 = 0.5496 | 1.44082 | 1.43837 | 1.43591 | 1.43351 | 1.43104
x2 = 0.6004 | 1.43586 | 1.43342 | 1.43102 | 1.42848 | 1.42602
x2 = 0.6499 | 1.43099 | 1.42852 | 1.42607 | 1.42354 | 1.42107
x2 = 0.6998 | 1.42593 | 1.42345 | 1.42099 | 1.41852 | 1.41609
x2 = 0.7517 | 1.4207 | 1.41819 | 1.41576 | 1.41331 | 1.41084
x2 = 0.801 | 1.41551 | 1.41312 | 1.4106 | 1.40817 | 1.40574
x2 = 0.8489 | 1.41049 | 1.40806 | 1.40567 | 1.40319 | 1.40078
x2 = 0.8999 | 1.40499 | 1.40257 | 1.40021 | 1.39782 | 1.39529
x2 = 0.9493 | 1.39969 | 1.39734 | 1.39484 | 1.39244 | 1.39
